Reference: patent US20060069132A1, “Azolecarboxamide herbicides” (priority 2004, published 2006)

Legend:
[1] = system: morningglory; test: Test B pre-/postemergence herbicide test; type: in vivo, Ipomoea coccinea; settings: for Morningglory plant response rating: postemergence, visual rating, scale 0 (no effect) to 100 (complete control)
Procedure, shortened: (§1)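 Pre: seeds sown, then sprayed. Post: 1–4-leaf plants (2–18 cm) sprayed at the same time. Paddy: flooded, treated at 2-leaf stage. Formulation: non-phytotoxic solvent with surfactant. Greenhouse 13–15 days; visual 0–100 score relative to controls.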

[2] = system: redroot pigweed; test: Test A pre-/postemergence herbicide test; type: in vivo, Amaranthus retroflexus
Procedure, shortened: (§2)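 Pre: seeded sandy loam, directed soil spray, compound in non-phytotoxic solvent + surfactant. Post: 1–2-leaf plants (2–10 cm), sprayed to runoff. Greenhouse ~10 d; visual injury vs untreated, 0–100 scale.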

[3] = system: barnyardgrass; test: Test B pre-/postemergence herbicide test; type: in vivo, Echinochloa crus-galli; settings: for Barnyardgrass plant response rating: postemergence, visual rating, scale 0 (no effect) to 100 (complete control)
Procedure, shortened: as §1

[4] = system: rice; test: Test B flooded paddy test; type: in vivo, Oryza sativa; settings: 1000 g ai/ha, visual rating, scale 0 to 100 (0 no effect, 100 complete control), 13 to 15 days
Procedure, shortened: (§3)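 Read-out: visual comparison with controls, scored 0 to 100, where 100 means complete control and 0 no effect. Formulated chemicals were applied postemergence to plants 2–18 cm tall (1- to 4-leaf), or to flooded-paddy plants at the 2-leaf stage, then held 13 to 15 days under glass.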

[5] = system: blackgrass; test: Test B postemergence herbicide test; type: in vivo, Alopecurus myosuroides; settings: postemergence, visual rating, scale 0 (no effect) to 100 (complete control)
Procedure, shortened: as §3

[6] = system: cocklebur; test: Test B pre-/postemergence herbicide test; type: in vivo, Xanthium strumarium; settings: for Cocklebur plant response rating: postemergence, visual rating, scale 0 (no effect) to 100 (complete control)
Procedure, shortened: as §1

[7] = system: wheat; test: Test B postemergence herbicide test; type: in vivo, Triticum aestivum; parameters: key to Wheat plant response rating: 0 = no effect, 100 = complete control; settings: postemergence, visual rating, scale 0 (no effect) to 100 (complete control)
Procedure, shortened: as §3

[8] = system: giant foxtail; test: Test A pre-/postemergence herbicide test; type: in vivo, Setaria faberi
Procedure, shortened: as §2

[9] = system: rice; test: Test B pre-/postemergence herbicide test; type: in vivo, Oryza sativa; settings: preemergence
Procedure, shortened: (§4)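 Visual rating, 0 (no effect) to 100 (complete control), versus untreated controls after 13–15 d in greenhouse. Pre- and postemergence applications (postemergence plants 2–18 cm, 1–4 leaves); flooded paddy arm at 2-leaf stage. Compounds in non-phytotoxic solvent plus surfactant.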

[10] = system: small flower umbrella sedge; test: Test B flooded paddy test; type: in vivo, Cyperus difformis; settings: 1000 g ai/ha, visual rating, scale 0 to 100 (0 no effect, 100 complete control), 13 to 15 days
Procedure, shortened: as §3

[11] = system: pigweed; test: Test B pre-/postemergence herbicide test; type: in vivo, Amaranthus retroflexus; settings: for Pigweed plant response rating: postemergence, visual rating, scale 0 (no effect) to 100 (complete control)
Procedure, shortened: as §4

[12] = system: ducksalad; test: Test B flooded paddy test; type: in vivo, Heteranthera limosa; settings: 1000 g ai/ha, visual rating, scale 0 to 100 (0 no effect, 100 complete control), 13 to 15 days
Procedure, shortened: as §3

[13] = system: large crabgrass; test: Test B pre-/postemergence herbicide test; type: in vivo, Digitaria sanguinalis; settings: for Crabgrass, Large plant response rating: postemergence, visual rating, scale 0 (no effect) to 100 (complete control)
Procedure, shortened: as §4

[14] = system: lambsquarters; test: Test B pre-/postemergence herbicide test; type: in vivo, Chenopodium album; settings: for Lambsquarters plant response rating: postemergence, visual rating, scale 0 (no effect) to 100 (complete control)
Procedure, shortened: as §4

[15] = system: corn; test: Test B pre-/postemergence herbicide test; type: in vivo, Zea mays; settings: for Corn plant response rating: postemergence, visual rating, scale 0 (no effect) to 100 (complete control)
Procedure, shortened: as §4

[16] = system: velvetleaf; test: Test A pre-/postemergence herbicide test; type: in vivo, Abutilon theophrasti
Procedure, shortened: as §2

[17] = system: large crabgrass; test: Test A pre-/postemergence herbicide test; type: in vivo, Digitaria sanguinalis
Procedure, shortened: as §2

[18] = system: barnyardgrass; test: Test B flooded paddy test; type: in vivo, Echinochloa crus-galli; settings: 1000 g ai/ha, visual rating, scale 0 to 100 (0 no effect, 100 complete control), 13 to 15 days
Procedure, shortened: as §3

[19] = system: giant foxtail; test: Test B pre-/postemergence herbicide test; type: in vivo, Setaria faberi; settings: for Foxtail, Giant plant response rating: postemergence, visual rating, scale 0 (no effect) to 100 (complete control)
Procedure, shortened: as §4

[20] = system: wild oat; test: Test B postemergence herbicide test; type: in vivo, Avena fatua; settings: postemergence, visual rating, scale 0 (no effect) to 100 (complete control)
Procedure, shortened: as §3

[21] = system: Surinam grass; test: Test B pre-/postemergence herbicide test; type: in vivo, Urochloa decumbens; settings: for Surinam Grass plant response rating: postemergence, visual rating, scale 0 (no effect) to 100 (complete control)
Procedure, shortened: as §4

[22] = system: velvetleaf; test: Test B pre-/postemergence herbicide test; type: in vivo, Abutilon theophrasti; settings: for Velvetleaf plant response rating: postemergence, visual rating, scale 0 (no effect) to 100 (complete control)
Procedure, shortened: as §4

[23] = system: morningglory; test: Test A pre-/postemergence herbicide test; type: in vivo, Ipomoea spp.
Procedure, shortened: as §2

[24] = system: barnyardgrass; test: Test A pre-/postemergence herbicide test; type: in vivo, Echinochloa crus-galli
Procedure, shortened: as §2

[25] = 125 g ai/ha, 0 = no effect, 100 = complete control, preemergence
[26] = 500 g ai/ha, visual rating 0-100, 0 no effect, 100 complete control, preemergence
[27] = Postemergence, 500 g ai/ha, 0 to 100 scale, 0 no effect, 100 complete control
[28] = Postemergence, 2000 g ai/ha, 0 to 100 scale, 0 no effect, 100 complete control
[29] = Preemergence, 2000 g ai/ha, visual rating, 0 to 100 scale (0 no effect, 100 complete control)
[30] = preemergence, 500 g ai/ha, visual injury, 0 to 100 scale (0 no effect, 100 complete control)

Cc1nc(C(C)(C)C)sc1C(=O)Nc1cccc(C(=O)NCC(F)(F)F)c1 [Compound 201]
70: Crabgrass, Large plant response rating [17, 29]
10: Plant response rating, Morningglory [1, 26] | Plant response rating, Barnyardgrass [3, 26] | Cocklebur plant response rating ([6]; 125 g ai/ha) | Cocklebur plant response rating ([6]; 500 g ai/ha) | Plant response rating, Foxtail, Giant [8, 28] | Pigweed plant response rating ([11]; 125 g ai/ha) | Crabgrass, Large plant response rating ([13]; 500 g ai/ha) | Corn plant response rating ([15]; 125 g ai/ha) | Velvetleaf plant response rating [16, 27] | Plant response rating, Velvetleaf [16, 28] | Crabgrass, Large plant response rating [17, 27] | Oat, Wild plant response rating ([20]; 125 g ai/ha) | Oat, Wild plant response rating ([20]; 500 g ai/ha) | Surinam Grass plant response rating ([21]; 500 g ai/ha) | Plant response rating, Velvetleaf [22, 26] | Barnyardgrass plant response rating [24, 27]
20: Plant response rating, Pigweed [11, 26] | Corn plant response rating ([15]; 500 g ai/ha) | Plant response rating, Crabgrass, Large [17, 28] | Plant response rating, Barnyardgrass [24, 28]
5: Morningglory plant response rating [23, 29]
50: Barnyardgrass plant response rating [24, 29]
55: Plant response rating, Pigweed [2, 28]
15: Foxtail, Giant plant response rating [8, 29]
30: Morningglory plant response rating ([1]; 500 g ai/ha) | Plant response rating, Lambsquarters [14, 26] | Plant response rating, Morningglory [23, 28]
60: Plant response rating, Crabgrass, Large [13, 26]
40: Pigweed plant response rating [2, 27] | Pigweed plant response rating [2, 30] | Pigweed plant response rating ([11]; 500 g ai/ha) | Lambsquarters plant response rating ([14]; 125 g ai/ha) | Lambsquarters plant response rating ([14]; 500 g ai/ha)
0: Morningglory plant response rating (0 to 100 scale) [1, 25] | Morningglory plant response rating ([1]; 125 g ai/ha) | Barnyardgrass plant response rating (0 to 100 scale) [3, 25] | Barnyardgrass plant response rating ([3]; 125 g ai/ha) | Barnyardgrass plant response rating ([3]; 500 g ai/ha) | Rice plant response rating [4] | Blackgrass plant response rating ([5]; 125 g ai/ha) | Blackgrass plant response rating ([5]; 500 g ai/ha) | Cocklebur plant response rating (0 to 100 scale) [6, 25] | Plant response rating, Cocklebur [6, 26] | Wheat plant response rating ([7]; 125 g ai/ha) | Wheat plant response rating ([7]; 500 g ai/ha) | Foxtail, Giant plant response rating [8, 27] | Foxtail, Giant plant response rating [8, 30] | Rice plant response rating (0 to 100 scale) ([9]; 125 g ai/ha, 0 = no effect, 100 = complete control) | Plant response rating, Rice ([9]; 500 g ai/ha, visual rating 0-100, 0 no effect, 100 complete control) | Sedge, Umbrella plant response rating [10] | Pigweed plant response rating (0 to 100 scale) [11, 25] | Ducksalad plant response rating [12] | Crabgrass, Large plant response rating (0 to 100 scale) [13, 25] | Crabgrass, Large plant response rating ([13]; 125 g ai/ha) | Lambsquarters plant response rating (0 to 100 scale) [14, 25] | Corn plant response rating (0 to 100 scale) [15, 25] | Plant response rating, Corn [15, 26] | Velvetleaf plant response rating [16, 30] | Barnyardgrass plant response rating [18] | Foxtail, Giant plant response rating (0 to 100 scale) [19, 25] | Plant response rating, Foxtail, Giant [19, 26] | Foxtail, Giant plant response rating ([19]; 125 g ai/ha) | Foxtail, Giant plant response rating ([19]; 500 g ai/ha) | Surinam Grass plant response rating (0 to 100 scale) [21, 25] | Plant response rating, Surinam Grass [21, 26] | Surinam Grass plant response rating ([21]; 125 g ai/ha) | Velvetleaf plant response rating (0 to 100 scale) [22, 25] | Velvetleaf plant response rating ([22]; 125 g ai/ha) | Velvetleaf plant response rating ([22]; 500 g ai/ha) | Morningglory plant response rating [23, 30] | Barnyardgrass plant response rating [24, 30]
25: Morningglory plant response rating [23, 27]
95: Pigweed plant response rating [2, 29]
35: Velvetleaf plant response rating [16, 29] | Crabgrass, Large plant response rating [17, 30]
